In ChEMBL document CHEMBL1201862, “PubChem BioAssay data set” (2004):
The source made the active and inactive calls. For most assays here, no stated cut-off is given here; in the data, actives have a measured IC50 and inactives only a lower limit.

Assays:
Type in all cases: functional
[1] = molecular target: Sphingosine 1-phosphate receptor 2 (Homo sapiens, UniProt O95136); experiment: Late-stage fluorescence-based dose-response cell-based counterscreen assay to identify agonists of the Sphingosine 1-Phosphate Receptor 3 (S1P3): Sphingosine 1-Phosphate Receptor 2 (S1P2) agonist assay.
Chain of Sphingosine 1-phosphate receptor 2 (O95136 whole entry): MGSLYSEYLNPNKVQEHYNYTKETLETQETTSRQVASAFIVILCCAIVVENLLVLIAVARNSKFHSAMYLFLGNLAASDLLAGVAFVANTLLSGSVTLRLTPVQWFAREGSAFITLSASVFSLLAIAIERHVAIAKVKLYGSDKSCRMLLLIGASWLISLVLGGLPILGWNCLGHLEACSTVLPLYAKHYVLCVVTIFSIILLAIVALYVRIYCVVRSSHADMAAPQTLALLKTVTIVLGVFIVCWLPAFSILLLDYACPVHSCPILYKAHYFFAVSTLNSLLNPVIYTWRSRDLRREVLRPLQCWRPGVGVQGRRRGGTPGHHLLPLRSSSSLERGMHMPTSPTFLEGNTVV

[2] = molecular target: T1, Sphingosine 1-phosphate receptor 4 (Homo sapiens, UniProt O95977); experiment: Late-stage fluorescence-based dose-response cell-based counterscreen assay to identify agonists of the Sphingosine 1-Phosphate Receptor 3 (S1P3): Sphingosine 1-Phosphate Receptor 4 (S1P4) agonist assay.
T1 sequence (O95977 whole entry): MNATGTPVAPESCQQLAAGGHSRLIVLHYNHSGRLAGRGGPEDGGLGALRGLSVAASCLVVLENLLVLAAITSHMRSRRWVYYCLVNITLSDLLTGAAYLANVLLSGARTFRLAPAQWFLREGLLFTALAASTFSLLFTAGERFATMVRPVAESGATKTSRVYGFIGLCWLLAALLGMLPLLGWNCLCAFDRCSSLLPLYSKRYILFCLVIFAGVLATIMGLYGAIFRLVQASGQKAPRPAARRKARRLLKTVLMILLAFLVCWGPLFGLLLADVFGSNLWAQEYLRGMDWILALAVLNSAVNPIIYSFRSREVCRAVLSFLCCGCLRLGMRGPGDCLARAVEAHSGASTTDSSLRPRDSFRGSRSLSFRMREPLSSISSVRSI

[3] = molecular target: T2, Sentrin-specific protease 8 (Homo sapiens, UniProt Q96LD8); experiment: inhibition of human SENP8 cleavage activity – biochemical, luminescence, SAR follow-up (AID 504501)
T2 sequence (Q96LD8 whole entry): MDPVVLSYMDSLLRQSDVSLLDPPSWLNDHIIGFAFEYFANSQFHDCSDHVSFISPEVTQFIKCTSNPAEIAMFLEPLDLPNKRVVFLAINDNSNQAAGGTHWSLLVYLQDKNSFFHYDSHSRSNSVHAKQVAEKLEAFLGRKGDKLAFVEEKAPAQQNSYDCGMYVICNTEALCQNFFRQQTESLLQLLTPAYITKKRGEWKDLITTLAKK

[4] = molecular target: T3, Caspase-3 (Homo sapiens, UniProt P42574); experiment: SAR Analysis of small molecule inhibitors of Sentrin-specific proteases (SENPs) using a Caspase-3 Selectivity assay. [Related pubchem assays (depositor defined):AID2540, AID2599, AID434973, AID489001]
T3 sequence (P42574 whole entry): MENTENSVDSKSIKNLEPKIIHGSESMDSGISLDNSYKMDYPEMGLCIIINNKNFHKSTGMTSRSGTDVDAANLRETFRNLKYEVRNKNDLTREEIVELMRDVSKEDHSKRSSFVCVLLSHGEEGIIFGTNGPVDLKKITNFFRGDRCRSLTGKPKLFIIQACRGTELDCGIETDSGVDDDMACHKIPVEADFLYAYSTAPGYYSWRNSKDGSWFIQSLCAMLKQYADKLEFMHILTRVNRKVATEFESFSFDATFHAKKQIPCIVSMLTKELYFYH

[5] = molecular target: T4, Sentrin-specific protease 6 (Homo sapiens, UniProt Q9GZR1); experiment: SAR Analysis of small molecule inhibitors of Sentrin-specific protease 6 (SENP6) using a Luminescent assay. [Related pubchem assays (depositor defined):AID2582, AID2599]
T4 sequence (Q9GZR1 whole entry): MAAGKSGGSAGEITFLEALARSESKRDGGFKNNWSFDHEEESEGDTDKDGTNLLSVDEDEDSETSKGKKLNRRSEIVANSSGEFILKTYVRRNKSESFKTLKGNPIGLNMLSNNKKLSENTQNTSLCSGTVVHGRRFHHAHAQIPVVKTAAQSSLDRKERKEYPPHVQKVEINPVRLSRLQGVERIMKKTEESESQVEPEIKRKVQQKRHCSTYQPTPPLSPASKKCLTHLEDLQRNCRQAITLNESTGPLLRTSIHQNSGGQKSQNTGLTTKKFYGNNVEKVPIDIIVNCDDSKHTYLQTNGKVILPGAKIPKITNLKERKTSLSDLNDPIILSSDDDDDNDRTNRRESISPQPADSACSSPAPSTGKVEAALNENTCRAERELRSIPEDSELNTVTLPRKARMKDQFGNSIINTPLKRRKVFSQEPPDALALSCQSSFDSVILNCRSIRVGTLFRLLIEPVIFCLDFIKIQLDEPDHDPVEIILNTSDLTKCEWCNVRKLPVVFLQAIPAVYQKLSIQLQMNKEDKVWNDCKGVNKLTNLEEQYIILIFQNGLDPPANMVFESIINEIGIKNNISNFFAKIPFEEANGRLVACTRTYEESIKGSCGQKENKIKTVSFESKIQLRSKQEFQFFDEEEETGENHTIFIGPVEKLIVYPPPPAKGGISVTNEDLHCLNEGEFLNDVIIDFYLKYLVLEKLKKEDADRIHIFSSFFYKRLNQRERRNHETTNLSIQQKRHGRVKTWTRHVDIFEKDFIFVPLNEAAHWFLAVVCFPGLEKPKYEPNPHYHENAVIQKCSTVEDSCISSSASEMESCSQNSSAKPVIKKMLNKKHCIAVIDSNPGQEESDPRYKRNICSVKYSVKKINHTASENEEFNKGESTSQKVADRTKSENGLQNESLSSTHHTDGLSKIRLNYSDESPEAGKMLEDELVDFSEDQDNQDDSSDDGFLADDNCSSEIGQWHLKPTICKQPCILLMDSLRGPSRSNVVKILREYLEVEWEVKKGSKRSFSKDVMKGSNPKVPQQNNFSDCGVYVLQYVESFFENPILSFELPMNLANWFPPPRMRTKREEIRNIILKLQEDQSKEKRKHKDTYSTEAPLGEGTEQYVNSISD

[6] = molecular target: T5, Sentrin-specific protease 7 (Homo sapiens, UniProt Q9BQF6); experiment: inhibition of human SENP7 cleavage activity – biochemical, luminescence, SAR follow-up (AID 504497)
T5 sequence (Q9BQF6 whole entry): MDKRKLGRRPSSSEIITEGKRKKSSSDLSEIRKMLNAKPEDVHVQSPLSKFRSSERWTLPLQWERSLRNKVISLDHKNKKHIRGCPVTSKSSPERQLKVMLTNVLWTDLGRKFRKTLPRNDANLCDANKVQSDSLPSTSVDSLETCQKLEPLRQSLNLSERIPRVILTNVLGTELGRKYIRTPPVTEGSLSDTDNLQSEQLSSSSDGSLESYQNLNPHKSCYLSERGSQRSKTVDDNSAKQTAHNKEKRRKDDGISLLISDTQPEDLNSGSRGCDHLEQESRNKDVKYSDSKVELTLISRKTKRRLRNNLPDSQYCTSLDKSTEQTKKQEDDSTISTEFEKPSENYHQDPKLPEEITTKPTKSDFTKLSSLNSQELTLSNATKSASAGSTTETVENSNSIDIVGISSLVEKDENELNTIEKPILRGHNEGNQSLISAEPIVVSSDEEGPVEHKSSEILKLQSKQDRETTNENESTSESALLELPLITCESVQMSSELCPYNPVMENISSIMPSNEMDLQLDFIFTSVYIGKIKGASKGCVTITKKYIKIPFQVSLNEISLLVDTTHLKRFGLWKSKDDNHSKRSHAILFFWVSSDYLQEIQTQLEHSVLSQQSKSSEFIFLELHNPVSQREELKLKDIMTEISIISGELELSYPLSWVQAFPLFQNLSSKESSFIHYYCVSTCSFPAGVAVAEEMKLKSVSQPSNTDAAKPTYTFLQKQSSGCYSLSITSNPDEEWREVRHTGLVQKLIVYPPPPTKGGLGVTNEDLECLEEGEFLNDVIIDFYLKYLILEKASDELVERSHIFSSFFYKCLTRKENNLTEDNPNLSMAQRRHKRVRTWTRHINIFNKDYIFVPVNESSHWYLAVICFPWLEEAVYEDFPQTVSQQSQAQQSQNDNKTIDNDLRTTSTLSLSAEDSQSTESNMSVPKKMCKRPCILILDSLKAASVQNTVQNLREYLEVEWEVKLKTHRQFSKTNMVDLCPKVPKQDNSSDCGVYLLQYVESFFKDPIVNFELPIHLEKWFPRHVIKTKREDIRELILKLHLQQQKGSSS

Cc1cc(C(=O)N(C2CCCCC2)C2CCCCC2)no1
inactive: EC50 [1] > 50 µM | EC50 [2] > 50 µM

CC1CC(C)CN(S(=O)(=O)c2ccc(C(=O)Nc3nc4ccc(C(C)C)cc4s3)cc2)C1 (stereo unspecified)
inactive: IC50 [3] > 99 µM | IC50 [4] > 99 µM | IC50 [5] > 99 µM | IC50 [6] > 99 µM
